Experimental findings from patent US5380724A, “Piperazine and homopiperazine derivatives, pharmaceutical compositions containing them and process for preparing same” (Gyogyszerkutato Intezet KFT, priority 1992, dated 1995) are described below.

For test [1], the system named is arachidonic acid (ferrous ion dependent peroxidation). Briefly: inhibition of the ferrous ion dependent peroxidation of arachidonic acid. Conditions: Fe2+ dependent peroxidation of arachidonic acid. It is filed as biochemical. The protocol:
2. The inhibition of the ferrous ion dependent peroxidation of arachidonic acid was also measured by the method of J. M. Braughler et al. [J. Biol. Chem. 262, 10438 (1987)] and J. A. Buege and S. D. Aust [Methods in Enzymology 52, 302 (1978)]. The IC50 values (expressed in micromols) of some compounds of the invention, further those of the reference compounds determined in this test are shown in Table 2.

The test system of test [2] is NADPH dependent lipid peroxidation. Briefly: inhibition of the NADPH dependent lipid peroxidation. It is filed as biochemical. On the procedure:
3. Inhibiton of the NADPH dependent lipid peroxidation was measured according to T. J. Player and A. A. Horton [J. Neurochem. 37, 422 (1981)] and Z. Duniec [Biochem. Pharmacol. 32, 2283 (1983)]. The IC50 values (expressed in micromols) of some compounds of the invention, further those of the reference compounds determined in this test are given in Table 3.

Test [3] has as its system rat brain homogenate (ferrous ion dependent lipid peroxidation). Description: ferrous ion dependent lipid peroxidation inhibitory activity on rat brain homogenate (thiobarbituric acid reactive substances). Conditions: Fe2+ dependent lipid peroxidation, TBARS. It is filed as biochemical. The protocol: 1. The ferrous ion dependent lipid peroxidation inhibitory activity was measured on rat brain homogenate by using the method descibed by J. M. Braughler et al., [J. Biol. Chem. 262, 10438 (1987)] and J. A. Buege and S. D. […] The IC50 value is defined as the concentration of a test substance which reduces by 50% the amount of the thiobarbituric acid reactive substances (chiefly malondialdehyde) considered to be a characteristic parameter of lipid peroxidation.

The subject of test [4] is ischemia induced weight increase of the small intestine. Description: inhibition of ischemia induced weight increase of a definite section in the small intestine of rats. It is filed as in vivo. The following applies: Rattus norvegicus, 25 mg/kg oral. On the procedure: 2. […] The percentage of inhibition observed after administration of a 25 mg/kg oral dose of the compounds of the invention or of the reference compounds is shown in Table 5.

In test [5] the test system is acute brain injury. Briefly: inhibition of acute brain injury of mice (improvement in the neurological state). It is filed as in vivo. The following applies: intravenous. The text has this:
1. […] 68, 456 (1988)]. The doses of the test compounds administered by the intravenous route and the percentage of improvement in the neurological state are summarized in Table 4.

pIC50: −log10 of the molar value. Bounds are passed on as bounds.

By pIC50 is commonly meant −log10 of the IC50, conventionally taken in molar units. A high value points to a small IC50. As a reminder, the inhibition in vivo is the percentage by which the read-out fell short of the control. Lower therefore signals a weak effect.

Turning to `Cc1cc(C(C)(C)C)c(O)c(C(C)(C)C)c1` [BHT, 3,5-di(tert-butyl)-4-hydroxytoluene, reference compound], the pIC50 was < 4.00 in test [1], 5.70 in test [2] and 6.00 in test [3]. The compound `C=CCCCCCCCCC(=O)N1CCN(c2cc(N)nc(N)n2)CC1` [Example 3, 1-(10-Undecenoyl)-4-(2,6-diamino-4-pyrimidinyl)-piperazine] registered an inhibition in vivo at 25 mg/kg in test [4] of 31%. Besides, the pIC50 in test [3] was 4.28. Take `CCCCCCCCCCCCCCCCCCN1CCN(c2cc(N)nc(N)n2)CC1` [Example 4]: the inhibition in vivo at 25 mg/kg in test [4] came to 46%. In test [4], `CCCCCCCCCCCCCCCCCC(=O)N1CCCN(c2cc(N3CCCC3)nc(N3CCCC3)n2)CC1` [Example 6] registered an inhibition in vivo at 25 mg/kg of 25%.

For the compound `CCCCCCCCCCCCCCCCCC(=O)N1CCN(c2cc(N)nc(N)n2)CC1` [Example 7], 25 mg/kg produced 34% inhibition in vivo in test [4]. Turning to `Nc1cc(N2CCN(C(c3ccccc3)(c3ccccc3)c3ccccc3)CC2)nc(N)n1` [Example 9, 1-Trityl-4-(2,6-diamino-4-pyrimidinyl)piperazine], at 25 mg/kg the inhibition in vivo in test [4] was 37%. In test [3], this compound showed a pIC50 of 4.29. `c1ccc(C(c2ccccc2)(c2ccccc2)N2CCCN(c3cc(N4CCCC4)nc(N4CCCC4)n3)CC2)cc1` [Example 11]: 25 mg/kg produced 57% inhibition in vivo in test [4]. The compound `Nc1cc(N2CCN(C(c3ccccc3)(c3ccccc3)c3ccccc3Cl)CC2)nc(N)n1` [Example 12] registered an inhibition in vivo at 25 mg/kg in test [4] of 52%. In addition, the “Improvement (in the neurological state)” value in test [5] (10 mg/kg) was 46%. The pIC50 in test [3] was 4.74.

In the case of `Nc1nc2nc(N3CCN(C(c4ccccc4)(c4ccccc4)c4ccccc4Cl)CC3)nc(N)c2nc1-c1ccccc1` [Example 15], the inhibition in vivo at 25 mg/kg in test [4] worked out at 32%. Still for that read-out and setting: the value for `Nc1nc(N)c2nc(C(=O)N3CCN(C(c4ccccc4)(c4ccccc4)c4ccccc4Cl)CC3)c(N)nc2n1` [Example 16] was 45%; that for `O=c1[nH]ncc(N2CCN(C34CC5CC(CC(C5)C3)C4)CC2)c1Cl` [Example 18, 1-(1-Adamantyl)-4-(4-chloro-3-oxo-2,3-dihydro-5-pyridazinyl)piperazine] was 31%. Consider `Nc1cc(N2CCN(CC(O)COc3cccc4ccccc34)CC2)nc(N)n1` (stereo not shown) [Example 20, 1-[2-Hydroxy-3-(1-naphthyloxy)-propyl]-4-(2,6-diamino-4-pyrimidinyl)piperazine], for which 25 mg/kg produced 28% inhibition in vivo in test [4]. Besides, in test [3], the pIC50 is 4.03. For the compound `OC(COc1cccc2ccccc12)CN1CCN(c2cc(N3CCCC3)nc(N3CCCC3)n2)CC1` (stereo not shown) [Example 22], the pIC50 in test [3] was 4.89. Consider `OC(COc1cccc2ccccc12)CN1CCCN(c2cc(N3CCCC3)nc(N3CCCC3)n2)CC1` (stereo not shown) [Example 23], for which the pIC50 in test [2] was 4.89; in test [3] it was 5.05. Further, in test [4], the inhibition in vivo at 25 mg/kg amounted to 52%. In test [4], `Nc1cc(N2CCN(CC(O)COc3ccc4ccccc4c3)CC2)nc(N)n1` (stereo not shown) [Example 24] had an inhibition in vivo at 25 mg/kg of 20%. The same measure, in the same setting: the value for `Nc1cc(N2CCCN(CC(O)COc3ccc4ccccc4c3)CC2)nc(N)n1` (stereo not shown) [Example 25] was 35%. As for `OC(COc1ccc2ccccc2c1)CN1CCN(c2cc(N3CCCC3)nc(N3CCCC3)n2)CC1` (stereo not shown) [Example 26], the pIC50 was 4.23 in test [2] and 4.72 in test [3]. For the same compound, 25 mg/kg produced 45% inhibition in vivo in test [4]. Consider `O=C1CCCc2cc(OCC(O)CN3CCCN(c4cc(N5CCCC5)nc(N5CCCC5)n4)CC3)ccc21` (stereo not shown) [Example 30], for which the pIC50 in test [2] is 4.80; in test [3], 4.92. The compound further yielded an inhibition in vivo at 25 mg/kg in test [4] of 42%.

In test [4], `Nc1cc(N2CCN(C(=O)COc3cccc4ccccc34)CC2)nc(N)n1` [Example 31, 1-[2-(1-Naphthyloxy)acetyl]-4-(2,6-diamino-4-pyrimidinyl)piperazine] returned an inhibition in vivo at 25 mg/kg of 79%.

Consider `O=C(COc1cccc2ccccc12)N1CCN(c2cc(N3CCCC3)nc(N3CCCC3)n2)CC1` [Example 33, 1-[2-(1-Naphthyloxy)acetyl]-4-[2,6-di(1-pyrrolidinyl)-4-pyrimidinyl]piperazine], for which the inhibition in vivo at 25 mg/kg in test [4] turned out to be 53%. The pIC50 in test [3] was 4.70. As to `O=C(COc1cccc2ccccc12)N1CCCN(c2cc(N3CCCC3)nc(N3CCCC3)n2)CC1` [Example 36], in test [4], the inhibition in vivo at 25 mg/kg turned out to be 24%. In addition, in test [3], the pIC50 was 4.52. As for `Nc1nc(N)c2nc(-c3ccc(OCC(O)CN4CCN(C56CC7CC(CC(C7)C5)C6)CC4)cc3)c(N)nc2n1` (stereo not shown) [Example 37, 6-[4-[3-[4-(1-Adamantyl)-1-piperazinyl]-2-hydroxypropoxy]phenyl]-2,4,7-triaminopteridine], the pIC50 in test [1] was 4.77. This compound also showed an inhibition in vivo at 25 mg/kg in test [4] of 35%. As to `Nc1nc(N)c2nc(-c3ccc(OCC(O)CN4CCN(C(c5ccccc5)(c5ccccc5)c5ccccc5Cl)CC4)cc3)c(N)nc2n1` (stereo not shown) [Example 39], 25 mg/kg produced 34% inhibition in vivo in test [4]. `Nc1nc(N)c2nc(-c3ccc(OCC(O)CN4CCCNCC4)cc3)c(N)nc2n1` (stereo not shown) [Example 51] showed a pIC50 in test [1] of 4.55.

Turning to `Nc1nc(N)c2nc(-c3ccc(NCC(O)CN4CCNCC4)cc3)c(N)nc2n1` (stereo not shown) [Example 52], the pIC50 in test [1] was 4.92. The compound further displayed an inhibition in vivo at 25 mg/kg in test [4] of 34%. For `CN(CC(O)CN1CCNCC1)c1ccc(-c2nc3c(N)nc(N)nc3nc2N)cc1` (stereo not shown) [Example 53], in that order: 6.05 and 56%. In turn, `Nc1nc(N)c2nc(-c3ccc(SCC(O)CN4CCNCC4)cc3)c(N)nc2n1` (stereo not shown) [Example 54] gave a pIC50 in test [1] of 4.77. The compound also registered an inhibition in vivo at 25 mg/kg in test [4] of 56%.

Regarding `Nc1nc(N)c2nc(-c3ccc(NC(=O)CN4CCNCC4)cc3)c(N)nc2n1` [Example 55], 25 mg/kg produced 47% inhibition in vivo in test [4]. In turn, `Nc1nc(N)c2nc(-c3ccc(NCCCN4CCNCC4)cc3)c(N)nc2n1` [Example 56, 6-[4-[3-(1-Piperazinyl)propylamino]phenyl]-2,4,7-triamino-pteridine] yielded an inhibition in vivo at 25 mg/kg in test [4] of 44%.

Take `Nc1nc2nc(N3CCN(C45CC6CC(CC(C6)C4)C5)CC3)nc(N)c2nc1-c1ccccc1` [Example 57, 1-(1-Adamantyl)-4-(4,7-diamino-6-phenyl-2-pteridinyl)piperazine]: the pIC50 in test [1] is 4.31.

`Nc1nc2nc(N3CCNCC3)nc(N)c2nc1-c1ccccc1` [Example 58, 1-(4,7-Diamino-6-phenyl-2-pteridinyl)piperazine]: in test [1], the pIC50 is 4.42.

With `Nc1nc(N2CCNCC2)c2nc(-c3ccccc3)c(N)nc2n1` [Example 59, 1-(2,7-Diamino-6-phenyl-4-pteridinyl)piperazine], in test [4], the inhibition in vivo at 25 mg/kg is 30%. In the case of `Cc1c(C)c2c(c(C)c1O)CCC(C)(CCCC(C)CCCC(C)CCCC(C)C)O2` (stereo not drawn) [α-tocopherol, reference compound], the pIC50 in test [1] was 5.70; in test [2] it was < 4.00; in test [3] it was 5.15. Besides, in test [5] (30 mg/kg), the “Improvement (in the neurological state)” value is 97%.
